For 20 molecules, IC50 results are on record in patent US20100267774A1, “P38 MAP KINASE INHIBITORS” (CHROMA THERAPEUTICS LTD., priority 2007, published 2010).

Molecules are shown by their SMILES. pIC50: −log10 of the molar value.

One assay deals with THP-1 TNFα release. Briefly: LPS-stimulation of THP-1 cells, TNF-α release by ELISA. The assay is classed as cell-based. Particulars: Homo sapiens, THP-1, 6 h; read-out: Inhibitor activity versus THP-1 TNFα release. The procedure: THP-1 cells were plated in 100 μl at a density of 4×10^4 cells/well in V-bottomed 96 well tissue culture treated plates and incubated at 37° C. in 5% CO2 for 16 hrs. 2 hrs after the addition of the inhibitor in 100 μl of tissue culture media, the cells were stimulated with LPS (E coli strain 005:B5, Sigma) at a final concentration of 1 μg/ml and incubated at 37° C. in 5% CO2 for 6 hrs. TNF-α levels were measured from cell-free supernatants by sandwich ELISA (R&D Systems #QTA00B).
(In general: In an ELISA, binding on a coated surface is turned into a signal by an enzyme label.)

In another assay the target is T1, p38 MAP Kinase a (Homo sapiens, UniProt Q16539).
T1 construct: purchased Upstate (Dundee UK)
Nature of the assay: p38 MAP Kinase activity, radiometric filter-binding assay (Upstate). The assay is classed as biochemical. To be noted: IC50 range; read-out: Inhibitor activity versus p38 MAPKa. As for the experimental part: The ability of compounds to inhibit p38 MAP a Kinase activity was measured in an assay performed by Upstate (Dundee UK). In a final reaction volume of 25 μL, p38 MAP Kinase a (5-10 mU) is incubated with 25 mM Tris pH 7.5, 0.002 mMEGTA, 0.33 mg/mL myelin basic protein, 10 mM MgAcetate and [g-33P-ATP] (specific activity approx. 500 cpm/pmol, concentration as required). The reaction is initiated by the addition of the MgATP mix. After incubation for 40 minutes at room temperature, the reaction is stopped by the addition of 5 μL of a 3% phosphoric acid solution. 10 μL of the reaction is then spotted onto a P30 filtermat and washed three times for 5 minutes in 75 mM phosphoric acid and once in methanol prior to drying and scintillation counting.
Duplicate data points are generated from a 1/3 log dilution series of a stock solution in DMSO. Nine dilutions steps are made from a top concentration of 10 μM, and a ‘no compound’ blank is included. The standard radiometric filter-binding assay is performed at an ATP concentration at, or close to, the Km. Data from scintillation counts are collected and subjected to free-fit analysis by Prism software. From the curve generated, the concentration giving 50% inhibition is determined and reported.

T1 sequence (Q16539 whole entry): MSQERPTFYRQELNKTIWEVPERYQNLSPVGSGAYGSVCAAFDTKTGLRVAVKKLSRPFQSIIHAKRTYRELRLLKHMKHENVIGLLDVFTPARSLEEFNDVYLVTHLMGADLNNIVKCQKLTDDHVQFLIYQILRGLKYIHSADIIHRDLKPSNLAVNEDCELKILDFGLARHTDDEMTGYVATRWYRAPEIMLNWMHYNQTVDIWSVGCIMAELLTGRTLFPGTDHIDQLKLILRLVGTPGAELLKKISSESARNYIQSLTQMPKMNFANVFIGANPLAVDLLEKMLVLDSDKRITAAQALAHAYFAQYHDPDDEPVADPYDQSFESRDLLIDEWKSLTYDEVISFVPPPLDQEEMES

With `CC(C)C[C@H](NCCc1ccc(-n2c(N)c(C(=O)c3ccc(F)cc3F)ccc2=O)cc1)C(=O)O[C@@H]1CC(C)CC[C@H]1C(C)C` (stereo in doubt) [Example 13, (1R,2S,5S)-2-Isopropyl-5-methylcyclohexyl N-(2-{4-[6-amino-5-(2,4-difluorobenzoyl)-2-oxopyridin-1(2H)-yl]phenyl}ethyl)-L-leucinate], the pIC50 in the assay with THP-1 TNFα release is over 7.00; on p38 MAP Kinase a, under 6.00.

Regarding `Nc1c(C(=O)c2ccc(F)cc2F)ccc(=O)n1-c1ccc(CCN[C@H](C(=O)OC2CCCC2)c2ccccc2)cc1` [Example 1], the values for the pIC50 in the assay on THP-1 TNFα release and at p38 MAP Kinase a were over 7.00 and 6.00 to 7.00, respectively.

`CC(C)[C@H](NCCc1ccc(-n2c(N)c(C(=O)c3ccc(F)cc3F)ccc2=O)cc1)C(=O)OC1CCCC1` [Example 5, Cyclopentyl N-[2-(4-{6-amino-5-[(2,4-difluorophenyl)carbonyl]-2-oxopyridin-1(2H)-yl}phenyl)ethyl]-L-valinate]: the pIC50 is over 7.00 in the assay on THP-1 TNFα release and 6.00 to 7.00 on p38 MAP Kinase a.

Take `CC(C)[C@H](NCCc1ccc(-n2c(N)c(C(=O)c3ccc(F)cc3F)ccc2=O)cc1)C(=O)OC(C)(C)C` [Example 6, tert-butyl N-[2-(4-{6-amino-5-[(2,4-difluorophenyl)carbonyl]-2-oxopyridin-1(2H)-yl}phenyl)ethyl]-L-valinate]: the pIC50 in the assay with THP-1 TNFα release and on p38 MAP Kinase a was 6.00 to 7.00 in each case.

For `CC(C)(C)[C@H](NCCc1ccc(-n2c(N)c(C(=O)c3ccc(F)cc3F)ccc2=O)cc1)C(=O)OC1CCCC1` [Example 7, Cyclopentyl N-[2-(4-{6-amino-5-[(2,4-difluorophenyl)carbonyl]-2-oxopyridin-1(2H)-yl}phenyl)ethyl]-3-methyl-L-valinate], the pIC50 was under 6.00 in the assay on THP-1 TNFα release and 6.00 to 7.00 on p38 MAP Kinase a.

As for `CC(C)(C)OC(=O)[C@@H](NCCc1ccc(-n2c(N)c(C(=O)c3ccc(F)cc3F)ccc2=O)cc1)C(C)(C)C` [Example 8, tert-butyl N-[2-(4-{6-amino-5-[(2,4-difluorophenyl)carbonyl]-2-oxopyridin-1(2H)-yl}phenyl)ethyl]-3-methyl-L-valinate], the pIC50 in the assay with THP-1 TNFα release is under 6.00; on p38 MAP Kinase a, 6.00 to 7.00.

`CC(C)C[C@@H](NCCc1ccc(-n2c(N)c(C(=O)c3ccc(F)cc3F)ccc2=O)cc1)C(=O)OC1CCCC1` [Example 9, Cyclopentyl N-[2-(4-{6-amino-5-[(2,4-difluorophenyl)carbonyl]-2-oxopyridin-1(2H)-yl}phenyl)ethyl]-D-leucinate]: the pIC50 in the assay with THP-1 TNFα release and at p38 MAP Kinase a was 6.00 to 7.00 each time.

Regarding `CC(C)(C)OC[C@H](NCCc1ccc(-n2c(N)c(C(=O)c3ccc(F)cc3F)ccc2=O)cc1)C(=O)OC1CCCC1` [Example 11, Cyclopentyl N-[2-(4-{6-amino-5-[(2,4-difluorophenyl)carbonyl]-2-oxopyridin-1(2H)-yl}phenyl)ethyl]-O-tert-butyl-L-serinate], the pIC50 is over 7.00 in the assay with THP-1 TNFα release and 6.00 to 7.00 at p38 MAP Kinase a.

As for `CC(C)(C)OC[C@H](NCCc1ccc(-n2c(N)c(C(=O)c3ccc(F)cc3F)ccc2=O)cc1)C(=O)OC(C)(C)C` [Example 12, tert-butyl N-[2-(4-{6-amino-5-[(2,4-difluorophenyl)carbonyl]-2-oxopyridin-1(2H)-yl}phenyl)ethyl]-O-tert-butyl-L-serinate], the results for the pIC50 with THP-1 TNFα release and at p38 MAP Kinase a were under 6.00 and 6.00 to 7.00, respectively.

Regarding `CC(C)(C)OC(=O)[C@@H](NCCc1cc(F)c(-n2c(N)c(C(=O)c3ccc(F)cc3F)ccc2=O)c(F)c1)c1ccccc1` [Example 35, tert-butyl (2S)-[(2-{4-[6-amino-5-(2,4-difluorobenzoyl)-2-oxopyridin-1(2H)-yl]-3,5-difluorophenyl}ethyl)amino](phenyl)acetate], the pIC50 in the assay with THP-1 TNFα release was over 7.00.

On to `Nc1c(C(=O)c2ccc(F)cc2F)ccc(=O)n1-c1c(F)cc(CCN[C@H](C(=O)OC2CCCC2)c2ccc(F)cc2)cc1F` [Example 47, Cyclopentyl (2S)-{[2-(4-{6-amino-5-[(2,4-difluorophenyl)carbonyl]-2-oxopyridin-1(2H)-yl}-3,5-difluorophenyl)ethyl]amino}(4-fluorophenyl)ethanoate], for which the pIC50 in the assay with THP-1 TNFα release is over 7.00.

In the case of `CC(C)(C)OC(=O)[C@@H](NCCc1cc(F)c(-n2c(N)c(C(=O)c3ccc(F)cc3F)ccc2=O)c(F)c1)c1ccc(F)cc1` [Example 48, tert-butyl (2S)-{[2-(4-{6-amino-5-[(2,4-difluorophenyl)carbonyl]-2-oxopyridin-1(2H)-yl}-3,5-difluorophenyl)ethyl]amino}(4-fluorophenyl)ethanoate], the pIC50 in the assay with THP-1 TNFα release was over 7.00.

For the molecule `CC(C)C[C@H](NCCc1cc(F)c(-n2c(N)c(C(=O)c3ccc(F)cc3)ccc2=O)c(F)c1)C(=O)O` [Example 63, N-(2-{4-[6-amino-5-(4-fluorobenzoyl)-2-oxopyridin-1(2H)-yl]-3,5-difluorophenyl}ethyl)-L-leucine], the pIC50 at p38 MAP Kinase a was over 7.00.

Take `CC(C)C[C@@H](NCCc1cc(F)c(-n2c(N)c(C(=O)c3ccc(F)cc3)ccc2=O)c(F)c1)C(=O)O` [Example 64, N-(2-{4-[6-amino-5-(4-fluorobenzoyl)-2-oxopyridin-1(2H)-yl]-3,5-difluorophenyl}ethyl)-D-leucine]: the pIC50 on p38 MAP Kinase a is over 7.00.

`CC(C)(C)OC[C@H](NCCc1cc(F)c(-n2c(N)c(C(=O)c3ccc(F)cc3)ccc2=O)c(F)c1)C(=O)O` [Example 65, N-(2-{4-[6-amino-5-(4-fluorobenzoyl)-2-oxopyridin-1(2H)-yl]-3,5-difluorophenyl}ethyl)-O-tert-butyl-L-serine]: the pIC50 at p38 MAP Kinase a was over 7.00.

In the case of `Nc1c(C(=O)c2ccc(F)cc2F)ccc(=O)n1-c1c(F)cc(CCN[C@H](C(=O)O)c2ccccc2)cc1F` [Example 66, (2S)-[(2-{4-[6-amino-5-(2,4-difluorobenzoyl)-2-oxopyridin-1(2H)-yl]-3,5-difluorophenyl}ethyl)amino](phenyl)acetic acid], on p38 MAP Kinase a, the pIC50 is over 7.00.

In the case of `CC(C)C[C@H](NCCc1cc(F)c(-n2c(N)c(C(=O)c3ccc(F)cc3F)ccc2=O)c(F)c1)C(=O)O` [Example 67, N-(2-{4-[6-amino-5-(2,4-difluorobenzoyl)-2-oxopyridin-1(2H)-yl]-3,5-difluorophenyl}ethyl)-L-leucine], at p38 MAP Kinase a, the pIC50 is over 7.00.

As for `CC(C)C[C@@H](NCCc1cc(F)c(-n2c(N)c(C(=O)c3ccc(F)cc3F)ccc2=O)c(F)c1)C(=O)O` [Example 68, N-(2-{4-[6-amino-5-(2,4-difluorobenzoyl)-2-oxopyridin-1(2H)-yl]-3,5-difluorophenyl}ethyl)-D-leucine], the pIC50 on p38 MAP Kinase a is over 7.00.

With `CC(C)(C)OC[C@H](NCCc1cc(F)c(-n2c(N)c(C(=O)c3ccc(F)cc3F)ccc2=O)c(F)c1)C(=O)O` [Example 69, N-(2-{4-[6-amino-5-(2,4-difluorobenzoyl)-2-oxopyridin-1(2H)-yl]-3,5-difluorophenyl}ethyl)-O-tert-butyl-L-serine], at p38 MAP Kinase a, the pIC50 was over 7.00.

`CC(C)C[C@H](NCCc1ccc(-n2c(N)c(C(=O)c3ccc(F)cc3F)ccc2=O)s1)C(=O)O` [Example 71, N-(2-{5-[6-amino-5-(2,4-difluorobenzoyl)-2-oxopyridin-1(2H)-yl]-2-thienyl}ethyl)-L-leucine]: the pIC50 at p38 MAP Kinase a is 6.00 to 7.00.
